#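 Compound exposure: 48 hours, 5 concentrations, 96-well plates. TGI: concentration producing complete growth inhibition.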
# Tests used:
# Assay in all cases: DTP human tumour cell line panel, 48 h
# KM20L2 colon = system: KM20L2 colon
# BT-549 breast = system: BT-549 breast
# LXFL 529 NSCLC = system: LXFL 529 NSCLC
# HOP-18 NSCLC = system: HOP-18 NSCLC
# T-47D breast = system: T-47D breast
# RXF-631 renal = system: RXF-631 renal
# M19-MEL melanoma = system: M19-MEL melanoma
# DMS 273 small cell lung = system: DMS 273 small cell lung
# XF 498 CNS = system: XF 498 CNS
Structure (SMILES),TGI (KM20L2 colon),TGI (BT-549 breast),TGI (LXFL 529 NSCLC),TGI (HOP-18 NSCLC),TGI (T-47D breast),TGI (RXF-631 renal),TGI (M19-MEL melanoma),TGI (DMS 273 small cell lung),TGI (XF 498 CNS)
O=[N+]([O-])c1cc(C(F)(F)F)cc2n[se]nc12,16.4 µM,7.52 µM,3.14 µM,8.96 µM,10.4 µM,30.8 µM,10.6 µM,27.3 µM,5.66 µM
CCCCCCCCCCCCCP(=O)(OC)OC,42.8 µM,,33.5 µM,32.9 µM,,32.5 µM,33.4 µM,33.1 µM,31.8 µM
c1ccc(N2CCN(CCCN3CCc4c([nH]c5ccccc45)C3c3cccnc3)CC2)cc1 (configuration not stated),> 100 µM,,> 100 µM,> 100 µM,,98.2 µM,> 100 µM,> 75.4 µM,44.6 µM
Cc1ccc(-c2nc3ccccc3c(=O)n2NC2OC(CO)C(O)C(O)C2O)cc1 (configuration not stated),> 100 µM,,> 100 µM,> 100 µM,,> 100 µM,> 100 µM,> 100 µM,> 100 µM
CN(CCc1ccccn1)/[N+]([O-])=N/O (tested in a mixture with another compound),> 100 µM,,> 100 µM,> 100 µM,,> 100 µM,> 100 µM,> 100 µM,
COC(=O)/C(=N\Nc1nc(=S)[nH]n1N)C(C#N)c1ccc(Cl)cc1 (configuration not stated),> 100 µM,,> 100 µM,> 100 µM,,> 100 µM,> 100 µM,> 100 µM,> 100 µM
C=C1CCCC2OC(OC)CCC12 (configuration not stated),> 100 µM,,> 100 µM,> 100 µM,,> 100 µM,> 100 µM,> 100 µM,> 100 µM
CCCCCC1CC=CC(NC(=O)OCc2ccccc2)C1/C=C/CCCC1OCCO1 (configuration not stated),> 100 µM,,> 100 µM,> 100 µM,,> 100 µM,> 100 µM,> 100 µM,> 100 µM
COC(=O)/C=C(C)/C=C/c1c(C)c(C(C)=O)c(C)n1C,> 100 µM,,> 100 µM,> 100 µM,,> 100 µM,> 100 µM,> 100 µM,> 100 µM
CCc1cc2c(Nc3ccccc3)c3c(nc2s1)CCCC3,> 100 µM,,> 100 µM,> 100 µM,,> 100 µM,> 100 µM,> 100 µM,85.1 µM
CCN(CC)CCCNc1nccc2c(C)c3[nH]c4ccncc4c(=O)c3cc12,40 µM,,11.4 µM,18.7 µM,,22 µM,,11.8 µM,6.63 µM
CCCCCCCCCCCCCC(=O)NO,26 µM,33.1 µM,38.7 µM,81.6 µM,,> 62.5 µM,56.3 µM,27.3 µM,60.3 µM
COc1ccc(C(=O)Nc2ccn(CCOC(=O)c3ccc(OC)cc3)c(=O)n2)cc1,> 100 µM,,> 100 µM,> 100 µM,,> 100 µM,> 100 µM,> 100 µM,> 100 µM
